We go through seven compounds from US9232799B2, “N-[(het)arylethyl)] pyrazole(thio)carboxamides and their heterosubstituted analogues” (BAYER INTELLECTUAL PROPERTY GMBH, priority 2010, dated 2016).

Several values for one entry are separate records, joined by “and”; a condition that tells them apart may be missing. Identical values can stand only once.

Data set [1] can be described thus: logP by HPLC on reversed-phase column (C 18), EEC Directive 79/831 Annex V.A8. Format: physicochemical. Here is the method: In table 1, the logP values were determined in accordance with EEC Directive 79/831 Annex V.A8 by HPLC (High Performance Liquid Chromatography) on a reversed-phase column (C 18), using the method described below: Temperature: 40° C.; […]

The test system of data set [2] is Alternaria solani. Kind of data set: In vivo preventive test on Alternaria solani (tomato). The settings on record: 500 ppm of active ingredient, evaluated 7 days after inoculation. An excerpt:
One day after this treatment, the plants are inoculated with an aqueous spore suspension of Alternaria solani.

Data set [3] relates to Pyrenophora teres. Kind of data set: In vivo preventive test on Pyrenophora teres (barley). The settings on record: 500 ppm of active ingredient, evaluated 7-9 days after inoculation. An excerpt:
One day after this treatment, the plants are inoculated with an aqueous spore suspension of Pyrenophora teres.

Data set [4] has as its system Venturia inaequalis. In words: In vivo preventive test on Venturia inaequalis (apple scab). The settings on record: 100 ppm of active ingredient, evaluated 10 days after inoculation.
Data set [5] has as its system Septoria tritici. In words: In vivo preventive test on Septoria tritici (wheat). The settings on record: 500 ppm of active ingredient, evaluated 21 days after inoculation. An excerpt: (§1) To test for preventive activity, young plants are sprayed with the preparation of active compound or active compound combination at the stated rate of application.
Data set [6] deals with Blumeria graminis f.sp. hordei. In words: In vivo preventive test on Blumeria graminis (barley). The settings on record: 500 ppm of active ingredient, evaluated 7 days after inoculation.
Excerpt: as §1

In data set [7] the test system is Fusarium nivale (var. majus). Kind of data set: In vivo preventive test on Fusarium nivale (wheat). The settings on record: 500 ppm of active ingredient, evaluated 5 days after inoculation.
Excerpt: as §1

The test system of data set [8] is Leptosphaeria nodorum. In words: In vivo preventive test on Leptosphaeria nodorum (wheat). The settings on record: 500 ppm of active ingredient, evaluated 7-9 days after inoculation. An excerpt: One day after this treatment, the plants are inoculated with an aqueous spore suspension of Leptosphaeria nodorum.
The test system of data set [9] is Uromyces appendiculatus. In words: In vivo preventive test on Uromyces appendiculatus (beans). The settings on record: 100 ppm of active ingredient, evaluated 10 days after inoculation.
Data set [10] concerns Botrytis cinerea. Kind of data set: In vivo preventive test on Botrytis cinerea (beans). An excerpt: To test for preventive activity, young plants are sprayed with the preparation of active compound. After the spray coating has dried on, 2 small pieces of agar covered with growth of Botrytis cinerea are placed on each leaf.
For data set [11], the system named is Puccinia triticina. Kind of data set: In vivo preventive test on Puccinia triticina (wheat). The settings on record: evaluated 8 days after inoculation; for Efficacy: dose 500 ppm of active ingredient.
In data set [12] the test system is Phakopsora pachyrhizi. In words: In vivo protective test on Phakopsora pachyrhizi (soybeans). The settings on record: dose 250 ppm of active ingredient, evaluated 11 days after inoculation.
The test system of data set [13] is aflatoxines production. In words: microbe, parasite or virus in culture. Format: cell-based, Aspergillus parasiticus. The settings on record: 50 μM.
In data set [14] the test system is Fusarium graminearum. Kind of data set: microbe, parasite or virus in culture. The settings on record: 50 μM. The data set is classed as cell-based.
The test system of data set [15] is Sphaerotheca fuliginea. Kind of data set: In vivo preventive test on Sphaerotheca fuliginea (cucumber). The settings on record: 500 ppm of active ingredient, evaluated 7 days after inoculation. An excerpt:
One day after this treatment, the plants are inoculated with an aqueous spore suspension of Sphaerotheca fuliginea.

Data set [16] has as its system Fusarium nivale (var. majus). Kind of data set: In vivo curative test on Fusarium nivale (wheat). The settings on record: 500 ppm of active ingredient, evaluated 5 days after inoculation.
The mark [17] stands for this setting: preventive, beans, 100 ppm of active ingredient, lesion size 2 days after inoculation.

A word on the logP: it is the decadic logarithm of the partition coefficient of the neutral form, usually between octanol and water. Read a low logP as a more hydrophilic compound.

`Cn1nc(C(F)F)c(C(=O)N(C[Si](C)(C)c2cc(Cl)cc(Cl)c2)C2CC2)c1F` [Example 242] showed a logP in [1] of 4.78. Further, the Efficacy in data set [2] came out at 100%; in data set [3], 100%; in [4] it was 100%; in data set [5], 100%; in [6] it was 100%; in [7], 83%. Besides, the Efficacy in data set [8] is listed as 100%; in [9], 100%; in [10] (dose 500 ppm of active ingredient, table K10) it was 100%; in data set [10] (setting [17]), 100%; in data set [10] (preventive, beans, 500 ppm of active ingredient, lesion size 2 days after inoculation), “total protection”; in data set [11] it was 100%. The same compound returned an Efficacy in [12] of 99%. In [13], the “% Inhibition of Aflatoxin at 50 μM” value came out at 100%. Also, the “% Inhibition of fungal growth at 50 μM” value in [14] is on record as 100%.
Turning to `CC(Cc1ccc(Cl)cc1Cl)NC(=S)c1c(C(F)F)nn(C)c1F` (centres unmarked) [Example 70], the logP in data set [1] came out at 4.16. In addition, the Efficacy came out at 98% in [15]; 95% in data set [2]; 100% in data set [3]; 100% in data set [4]; 100% in data set [6]; 78% in [8]. Besides, the Efficacy in [9] is 75%; in data set [10] (setting [17]), 100%; in data set [16], 92%. The “% Inhibition of Aflatoxin at 50 μM” value in data set [13] turned out to be 100%. Further, in data set [14], the “% Inhibition of fungal growth at 50 μM” value worked out at 100%.
Regarding `Cn1nc(C(F)F)c(C(=O)N(C2CC2)C2CCCC2c2ccc(Cl)cc2Cl)c1F` (centres unmarked) [Example 211], the logP in data set [1] came to 4.67. Moreover, the Efficacy in [15], in data set [2], in data set [3], in data set [4], in data set [5] and in [6] was 100% throughout. Besides, the Efficacy was 100% in data set [7]; 95% in data set [8]; 100% in data set [9]; 100% in [10] (setting [17]); 100% and 98% in data set [11]; 80% in data set [12]. Further, the “Efficacy (protection)” value in data set [11] (preventive, 500 ppm of active ingredient) is given as “greater than 95%”. Further, the “% Inhibition of Aflatoxin at 50 μM” value in data set [13] came to 100%. In addition, the “% Inhibition of fungal growth at 50 μM” value in data set [14] is listed as 100%.
Turning to `Cn1nc(C(F)F)c(C(=O)N(C[Si](C)(C)c2ccc(Cl)cc2Cl)C2CC2)c1F` [Example 238], the logP in data set [1] was 4.78. Further, the Efficacy is recorded as 98% in data set [15]; 94% in data set [2]; 100% in data set [3]; 100% in data set [4]; 100% in data set [5]; 100% in [6]. Further, the Efficacy in data set [7] was 83%; in [8] it was 100%; in data set [9], 100%; in data set [10] (setting [17]), 100%; in data set [11], 100%; in data set [12], 85%. For the same compound, the “% Inhibition of Aflatoxin at 50 μM” value in [13] worked out at 100%. Also, in data set [14], the “% Inhibition of fungal growth at 50 μM” value is 100%.
For the compound `COC(c1cc(Cl)cc(Cl)c1)C(C)NC(=O)c1c(C(F)F)nn(C)c1Cl` (mixture of isomers) [Example 108], the Efficacy stood at 90% in data set [2]; 100% in [3]; 100% in data set [4]; 100% in [5]; 100% in data set [9]; 100% in [11]. In [16], this compound came in with an Efficacy of 100%. For the same compound, the “% Inhibition of Aflatoxin at 50 μM” value in [13] turned out to be 100%. In addition, in data set [14], the “% Inhibition of fungal growth at 50 μM” value is recorded as 100%.
As for `Cn1nc(C(F)F)c(C(=O)N(C[Si](C)(C)c2cccc(Cl)c2)C2CC2)c1F` [Example 235], the logP in [1] stood at 4.18. Further, the Efficacy in data set [15] was found to be 95%; in [2], 100%; in data set [3] it was 100%; in data set [4] it was 100%; in [5], 100%; in data set [6] it was 94%. Further, the Efficacy in data set [7] is listed as 100%; in [8], 100%; in [9] it was 100%; in data set [10] (setting [17]) it was 99%; in data set [11], 100%; in [12], 100%. The “% Inhibition of Aflatoxin at 50 μM” value in data set [13] worked out at 100%. Also, the “% Inhibition of fungal growth at 50 μM” value in [14] stood at 100%.
In data set [1], `Cn1nc(C(F)F)c(C(=O)N(C[Si](C)(C)c2ccccc2Cl)C2CC2)c1F` [Example 231] returned a logP of 4.13. For the same compound, the Efficacy in data set [15] is 100%; in [2], 94%; in [3], 100%; in data set [4] it was 99%; in data set [5], 100%; in data set [6] it was 100%. Also, the Efficacy in data set [7] is on record as 83%; in [8], 100%; in [9], 100%; in data set [10] (setting [17]), 99%; in data set [11], 100%; in data set [12], 80%. Also, in data set [13], the “% Inhibition of Aflatoxin at 50 μM” value is on record as 100%. In addition, in data set [14], the “% Inhibition of fungal growth at 50 μM” value is listed as 100%.
